Laboratory results as given in ChEMBL document CHEMBL1909046, “DrugMatrix in vitro pharmacology data”.

Legend:
Cytochrome P450 2C9 = Cytochrome P450 2C9 (Homo sapiens, UniProt P11712); conditions: bti-tn-5b1-4; note: in other assays of this panel Not Active means under 50% inhibition at 10 µM
[1] = target: T1, Muscarinic acetylcholine receptor M5 (Homo sapiens, UniProt P08912); type: cell membranes, CHO-K1, Membrane; conditions: cho-k1; note: in other assays of this panel Not Active means under 50% inhibition at 10 µM
T1 sequence (P08912 whole entry): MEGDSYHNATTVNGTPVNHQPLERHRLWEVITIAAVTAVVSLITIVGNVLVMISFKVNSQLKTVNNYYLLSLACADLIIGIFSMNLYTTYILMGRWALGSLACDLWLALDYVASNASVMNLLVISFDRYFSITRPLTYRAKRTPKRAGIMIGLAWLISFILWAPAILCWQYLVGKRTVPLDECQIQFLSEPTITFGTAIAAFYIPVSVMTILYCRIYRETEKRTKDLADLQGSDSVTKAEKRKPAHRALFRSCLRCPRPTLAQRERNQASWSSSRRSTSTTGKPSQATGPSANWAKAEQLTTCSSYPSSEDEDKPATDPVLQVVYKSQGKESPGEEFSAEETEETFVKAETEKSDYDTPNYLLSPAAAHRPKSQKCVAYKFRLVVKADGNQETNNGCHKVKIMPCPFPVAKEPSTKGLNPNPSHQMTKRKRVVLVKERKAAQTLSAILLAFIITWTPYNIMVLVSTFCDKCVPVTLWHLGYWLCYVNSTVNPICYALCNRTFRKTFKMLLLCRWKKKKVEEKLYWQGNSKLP

[2] = DRUGMATRIX: Serotonin (5-Hydroxytryptamine) 5-HT3 radioligand binding (ligand: [3H] GR-65630); type: cell membranes, Membrane; conditions: hek293; Not Active = under 50% inhibition at 10 µM
[3] = DRUGMATRIX: GABAA, Muscimol, Central radioligand binding (ligand: [3H] Muscimol); type: cell membranes, Rattus norvegicus, Wistar, Brain, Membrane; conditions: Not Active = under 50% inhibition at 10 µM
[4] = DRUGMATRIX: ATPase, Na+/K+ enzyme inhibition (substrate: ATP); type: tissue-based, Sus scrofa, Heart; conditions: Not Active = under 50% inhibition at 10 µM
Glucocorticoid receptor = target: T2, Glucocorticoid receptor (Homo sapiens, UniProt P04150); conditions: hela s3; note: in other assays of this panel Not Active means under 50% inhibition at 10 µM
T2 sequence (P04150 whole entry): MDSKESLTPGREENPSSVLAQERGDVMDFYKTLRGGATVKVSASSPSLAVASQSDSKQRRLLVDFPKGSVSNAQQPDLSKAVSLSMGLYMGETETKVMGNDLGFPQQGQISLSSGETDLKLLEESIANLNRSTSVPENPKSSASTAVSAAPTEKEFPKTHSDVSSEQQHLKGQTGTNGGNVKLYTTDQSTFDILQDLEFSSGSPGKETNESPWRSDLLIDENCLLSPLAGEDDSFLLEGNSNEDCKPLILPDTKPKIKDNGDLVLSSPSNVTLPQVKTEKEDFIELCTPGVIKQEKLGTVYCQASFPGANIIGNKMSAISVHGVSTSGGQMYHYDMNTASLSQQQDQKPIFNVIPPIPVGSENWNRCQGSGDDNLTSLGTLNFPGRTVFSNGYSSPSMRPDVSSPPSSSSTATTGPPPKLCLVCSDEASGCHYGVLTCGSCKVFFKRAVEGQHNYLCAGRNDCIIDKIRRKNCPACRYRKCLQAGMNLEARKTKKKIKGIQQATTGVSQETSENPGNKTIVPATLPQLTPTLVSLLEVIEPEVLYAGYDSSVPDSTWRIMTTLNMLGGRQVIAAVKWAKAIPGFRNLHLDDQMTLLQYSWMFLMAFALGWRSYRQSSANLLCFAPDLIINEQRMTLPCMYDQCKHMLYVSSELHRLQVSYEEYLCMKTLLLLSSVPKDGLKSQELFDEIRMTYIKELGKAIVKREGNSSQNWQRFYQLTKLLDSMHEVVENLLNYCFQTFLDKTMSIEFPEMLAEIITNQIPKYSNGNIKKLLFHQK

[5] = target: Vascular endothelial growth factor receptor 1 (Homo sapiens, UniProt P17948); type: cell-based; conditions: huvec; note: in other assays of this panel Not Active means under 50% inhibition at 10 µM
Sequence of Vascular endothelial growth factor receptor 1 (P17948 whole entry): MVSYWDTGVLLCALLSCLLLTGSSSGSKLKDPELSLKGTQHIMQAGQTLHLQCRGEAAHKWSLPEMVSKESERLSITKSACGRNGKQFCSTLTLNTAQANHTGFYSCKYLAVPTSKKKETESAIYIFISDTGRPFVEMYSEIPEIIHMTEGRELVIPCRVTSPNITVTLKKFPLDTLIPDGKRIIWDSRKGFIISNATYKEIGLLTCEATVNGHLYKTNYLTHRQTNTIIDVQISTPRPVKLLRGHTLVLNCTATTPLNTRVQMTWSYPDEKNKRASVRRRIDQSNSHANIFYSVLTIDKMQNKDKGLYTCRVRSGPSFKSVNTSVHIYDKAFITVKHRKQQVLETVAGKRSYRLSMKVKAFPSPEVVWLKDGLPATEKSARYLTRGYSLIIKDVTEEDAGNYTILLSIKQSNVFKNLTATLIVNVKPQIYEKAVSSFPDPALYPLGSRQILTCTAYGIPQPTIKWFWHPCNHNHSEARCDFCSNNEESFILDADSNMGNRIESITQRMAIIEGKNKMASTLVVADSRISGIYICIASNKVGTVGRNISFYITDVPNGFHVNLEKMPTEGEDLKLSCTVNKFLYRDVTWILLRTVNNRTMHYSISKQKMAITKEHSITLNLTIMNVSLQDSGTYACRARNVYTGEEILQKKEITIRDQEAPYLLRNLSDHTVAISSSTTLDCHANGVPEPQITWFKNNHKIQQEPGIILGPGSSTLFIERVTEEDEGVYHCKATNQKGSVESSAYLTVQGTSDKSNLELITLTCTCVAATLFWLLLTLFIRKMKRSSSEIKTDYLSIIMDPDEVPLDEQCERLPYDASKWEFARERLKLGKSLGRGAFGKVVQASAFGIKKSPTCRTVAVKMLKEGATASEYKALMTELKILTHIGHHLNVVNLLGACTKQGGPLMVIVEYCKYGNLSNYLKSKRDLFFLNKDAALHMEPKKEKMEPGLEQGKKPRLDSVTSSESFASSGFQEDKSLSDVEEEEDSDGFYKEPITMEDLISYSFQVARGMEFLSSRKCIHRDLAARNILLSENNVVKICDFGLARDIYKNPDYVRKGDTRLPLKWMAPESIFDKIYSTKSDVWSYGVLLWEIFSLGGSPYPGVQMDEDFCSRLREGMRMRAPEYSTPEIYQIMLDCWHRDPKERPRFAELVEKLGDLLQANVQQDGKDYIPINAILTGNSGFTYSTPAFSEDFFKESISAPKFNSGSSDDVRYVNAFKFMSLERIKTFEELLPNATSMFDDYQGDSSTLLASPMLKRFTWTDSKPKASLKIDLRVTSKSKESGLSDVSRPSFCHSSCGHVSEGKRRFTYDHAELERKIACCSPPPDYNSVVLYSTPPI

[6] = DRUGMATRIX: Leukotriene, BLT (LTB4) radioligand binding (ligand: [3H]LTB4); type: cell membranes, Membrane; conditions: u-937; Not Active = under 50% inhibition at 10 µM
[7] = DRUGMATRIX: Glutamate, Kainate radioligand binding (ligand: [3H] Kainic acid); type: cell membranes, Rattus norvegicus, Wistar, Brain, Membrane; conditions: Not Active = under 50% inhibition at 10 µM
Melanocortin receptor 5 = Melanocortin receptor 5 (Homo sapiens, UniProt P33032); type: cell membranes, Membrane; conditions: hek293; note: in other assays of this panel Not Active means under 50% inhibition at 10 µM
Sequence of Melanocortin receptor 5 (P33032 whole entry): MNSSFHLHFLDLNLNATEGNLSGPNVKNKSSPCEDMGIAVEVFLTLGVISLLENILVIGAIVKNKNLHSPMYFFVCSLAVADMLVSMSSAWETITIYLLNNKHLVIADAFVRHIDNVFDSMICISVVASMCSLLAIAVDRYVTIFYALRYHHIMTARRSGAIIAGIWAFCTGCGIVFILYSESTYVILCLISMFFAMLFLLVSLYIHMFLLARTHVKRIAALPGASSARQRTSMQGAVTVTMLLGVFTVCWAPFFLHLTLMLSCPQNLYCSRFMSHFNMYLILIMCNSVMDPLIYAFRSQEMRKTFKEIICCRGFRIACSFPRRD

[8] = DRUGMATRIX: GABAA, Flunitrazepam, Central radioligand binding (ligand: [3H] Flunitrazepam); type: cell membranes, Rattus norvegicus, Wistar, Brain, Membrane; conditions: Not Active = under 50% inhibition at 10 µM

Sequence of Cytochrome P450 2C9 (P11712 whole entry): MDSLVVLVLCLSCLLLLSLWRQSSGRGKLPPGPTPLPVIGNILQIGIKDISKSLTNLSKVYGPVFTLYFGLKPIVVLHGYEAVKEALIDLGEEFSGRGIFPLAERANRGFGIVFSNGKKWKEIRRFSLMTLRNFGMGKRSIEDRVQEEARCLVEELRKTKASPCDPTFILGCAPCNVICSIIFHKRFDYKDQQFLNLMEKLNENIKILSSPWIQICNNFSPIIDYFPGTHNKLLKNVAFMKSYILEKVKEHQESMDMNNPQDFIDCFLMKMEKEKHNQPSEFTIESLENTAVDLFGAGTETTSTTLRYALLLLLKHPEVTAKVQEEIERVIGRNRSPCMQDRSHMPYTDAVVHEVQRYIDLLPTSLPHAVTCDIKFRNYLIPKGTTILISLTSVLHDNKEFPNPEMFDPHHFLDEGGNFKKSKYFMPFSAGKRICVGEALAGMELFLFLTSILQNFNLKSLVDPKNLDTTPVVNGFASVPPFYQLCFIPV

C[C@]1(Cn2ccnn2)[C@H](C(=O)O)N2C(=O)C[C@H]2S1(=O)=O [TAZOBACTAM]
Not Active: IC50 (Cytochrome P450 2C9) | Ki (Cytochrome P450 2C9) | IC50 [1] | IC50 [2] | Ki [2] | IC50 [3] | Ki [3] | IC50 [4] | Ki [4] | IC50 (Glucocorticoid receptor) | IC50 [5] | IC50 [6] | Ki [6] | IC50 [7] | Ki [7] | IC50 (Melanocortin receptor 5) | IC50 [8] | Ki [8]

CN1C(C(=O)Nc2ccccn2)=C(O)c2sccc2S1(=O)=O [TENOXICAM]
Not Active: IC50 (Cytochrome P450 2C9) | Ki (Cytochrome P450 2C9) | IC50 [1] | IC50 [2] | Ki [2] | IC50 [3] | Ki [3] | IC50 [4] | Ki [4] | IC50 (Glucocorticoid receptor) | IC50 [5] | IC50 [6] | Ki [6] | IC50 [7] | Ki [7] | IC50 (Melanocortin receptor 5) | IC50 [8] | Ki [8]

O=C1CCC(N2C(=O)c3ccccc3C2=O)C(=O)N1 (configuration not stated) [THALIDOMIDE]
Not Active: IC50 (Cytochrome P450 2C9) | Ki (Cytochrome P450 2C9) | IC50 [1] | IC50 [2] | Ki [2] | IC50 [3] | Ki [3] | IC50 [4] | Ki [4] | IC50 (Glucocorticoid receptor) | IC50 [5] | IC50 [6] | Ki [6] | IC50 [7] | Ki [7] | IC50 (Melanocortin receptor 5) | IC50 [8] | Ki [8]

Cc1cccc(Nc2ccncc2S(=O)(=O)NC(=O)NC(C)C)c1 [TORSEMIDE]
Not Active: IC50 (Cytochrome P450 2C9) | Ki (Cytochrome P450 2C9) | IC50 [1] | IC50 [2] | Ki [2] | IC50 [3] | Ki [3] | IC50 [4] | Ki [4] | IC50 (Glucocorticoid receptor) | IC50 [5] | IC50 [6] | Ki [6] | IC50 [7] | Ki [7] | IC50 (Melanocortin receptor 5) | IC50 [8] | Ki [8]

CC(C)C[C@H](NC(=O)[C@@H](O)[C@H](N)Cc1ccccc1)C(=O)O [UBENIMEX]
Not Active: IC50 (Cytochrome P450 2C9) | Ki (Cytochrome P450 2C9) | IC50 [1] | IC50 [2] | Ki [2] | IC50 [3] | Ki [3] | IC50 [4] | Ki [4] | IC50 (Glucocorticoid receptor) | IC50 [5] | IC50 [6] | Ki [6] | IC50 [7] | Ki [7] | IC50 (Melanocortin receptor 5) | IC50 [8] | Ki [8]

Cc1onc(-c2ccccc2)c1-c1ccc(S(N)(=O)=O)cc1 [VALDECOXIB]
Not Active: IC50 (Cytochrome P450 2C9) | Ki (Cytochrome P450 2C9) | IC50 [1] | IC50 [2] | Ki [2] | IC50 [3] | Ki [3] | IC50 [4] | Ki [4] | IC50 (Glucocorticoid receptor) | IC50 [5] | IC50 [6] | Ki [6] | IC50 [7] | Ki [7] | IC50 (Melanocortin receptor 5) | IC50 [8] | Ki [8]

CC[C@]1(O)C[C@@H]2CN(CCc3c([nH]c4ccccc34)[C@@](C(=O)OC)(c3cc4c(cc3OC)N(C)[C@H]3[C@@](O)(C(=O)OC)[C@H](OC(C)=O)[C@]5(CC)C=CCN6CC[C@]43[C@@H]65)C2)C1 [VINBLASTINE]
Not Active: IC50 (Cytochrome P450 2C9) | Ki (Cytochrome P450 2C9) | IC50 [1] | IC50 [2] | Ki [2] | IC50 [3] | Ki [3] | IC50 [4] | Ki [4] | IC50 (Glucocorticoid receptor) | IC50 [5] | IC50 [6] | Ki [6] | IC50 [7] | Ki [7] | IC50 (Melanocortin receptor 5) | IC50 [8] | Ki [8]

C[C@@H](N)[C@H]1CC[C@H](C(=O)Nc2ccncc2)CC1 [Y-27632]
Not Active: IC50 (Cytochrome P450 2C9) | Ki (Cytochrome P450 2C9) | IC50 [1] | IC50 [2] | Ki [2] | IC50 [3] | Ki [3] | IC50 [4] | Ki [4] | IC50 (Glucocorticoid receptor) | IC50 [5] | IC50 [6] | Ki [6] | IC50 [7] | Ki [7] | IC50 (Melanocortin receptor 5) | IC50 [8] | Ki [8]

[Cl-].[Cl-].[Zn+2] [ZINC CHLORIDE]
Not Active: IC50 (Cytochrome P450 2C9) | Ki (Cytochrome P450 2C9) | IC50 [1] | IC50 [2] | Ki [2] | IC50 [3] | Ki [3] | IC50 [4] | Ki [4] | IC50 (Glucocorticoid receptor) | IC50 [5] | IC50 [6] | Ki [6] | IC50 [7] | Ki [7] | IC50 (Melanocortin receptor 5) | IC50 [8] | Ki [8]
